# US6660770B2, “Pesticidal activity of functionalized alkenes” (North Carolina State University, priority 1999, dated 2003)
# Experiments:
# Ornithodoros parkeri = experiment: Repellent assay for ticks; format: in vivo; settings: ten ticks; for # ticks on acetone: control paper opposite the compound paper; for # ticks on compound: test paper saturated with 60 uL of 15 mg/ml test solution
# Experimental: A repellent assay for ticks is carried out as follows: (1) Prepare 15 mg/ml test solution of test compound in 100% acetone in individual 500 uL bullet tubes. Prepare control solution (1 uL olive oil plus 100 uL 100 acetone). (2) prepare half circle test papers (radious =2.25 cm) from Whatman filter paper (# 2 qualitative). (3) Saturate test papers with 60 uL of 100% acetone, control, or test solution. Test papers are in individual sterile petri dishes during this process. (4) Allow test papers to air dry at room temperature for one hour. (5) Select and place ten ticks into separate sterile glass petri dishes. Allow ticks to acclimate to covered dishes for one hour. (6) Transfer one test paper treated with a test solution and one test paper treated with the control solution to each of separate sterile petri dish bottoms. On control included two test papers treated with acetone. A second control included two test papers treated with the control solution. (7) Place ten ticks in between the two test papers. Place the test arenas in a dark room at room temperature. (8) Record the location of ticks 15 minutes, 1 hour and 2 hours after being placed in the test arenas.
# Mosquito larvae = experiment: Mosquito larval mortality bioassay; format: in vivo; settings: mosquito larval mortality followed for three days in microtiter plates; compound dissolved in dimethylsulfoxide; Brewer's yeast
# Experimental: Mosquito larval mortality was followed for three days in microtiter plates containing 160 μL sterile water, 1-4 μL of the test compound dissolved in dimethylsulfoxide, and 10 μL of 2% Brewer's yeast. Controls were run under the same conditions without the test compounds. Larval mortality in the controls was 3% for 1-3 μL dimethylsulfoxide, and up to 20% for 4 μL dimethylsulfoxide.
Compound,# ticks on acetone (Ornithodoros parkeri; 15 minutes),# ticks on acetone (Ornithodoros parkeri; 1 hour),# ticks on acetone (Ornithodoros parkeri; 2 hours),Activity (LD50) (Mosquito larvae) [mM],further results
"O=C(O)CC/C=C/CCC1CCCCC1 [Compound 172, E-7-(Cyclohexyl)hept-4-enoic Acid]",8,10,10,,# ticks on compound (Ornithodoros parkeri; 15 minutes): 2
O=C(O)CCCCCCc1ccccc1 [7-Phenylheptanoic acid],,,,0.19 ± 0.02,
"CCOC(=O)CC/C=C/CCc1ccc(-c2ccccc2)cc1 [Compound 221, Ethyl E-7-((4-phenyl)phenyl)hept-4-enoate]",5,4,8,,# ticks on compound (Ornithodoros parkeri; 15 minutes): 5; # ticks on compound (Ornithodoros parkeri; 1 hour): 4; # ticks on compound (Ornithodoros parkeri; 2 hours): 2
"O=C(O)CC/C=C/CCc1ccc(O)cc1 [E-7-(4-Hydroxyphenyl)hept-4-enoic acid, E-7-(4-hydroxyphenyl)hept-4-enoic acid]",,,,0.59 ± 0.03,
"CCOC(=O)CC/C=C/CCC1CCCCC1 [Compound 218, Ethyl E-7-(Cyclohexyl)hept-4-enoate]",10,10,10,,
O=C(O)CC/C=C/CCc1ccccc1 [E-7-Phenylhept-4-enoic acid],,,,<0.08,
COc1ccc(CC/C=C/CCC(=O)O)cc1 [E-7-(4-Methoxyphenyl)hept-4-enoic acid],,,,1.28,
